# Test results reported in PubChem BioAssay AID2346 (The Scripps Research Institute Molecular Screening Center, 2010).
# Biological target: Sphingosine 1-phosphate receptor 4 (Homo sapiens) (UniProt O95977)
# Test: potency of S1P4 blockers – cell-based, fluorescence, synthesized analogues, late-stage follow-up (AID 2346)
# Settings: S1P4-expressing cells, antagonist fluorescence read-out
# Sphingosine 1-phosphate receptor 4 (Homo sapiens), sequence (O95977 whole entry, looked up): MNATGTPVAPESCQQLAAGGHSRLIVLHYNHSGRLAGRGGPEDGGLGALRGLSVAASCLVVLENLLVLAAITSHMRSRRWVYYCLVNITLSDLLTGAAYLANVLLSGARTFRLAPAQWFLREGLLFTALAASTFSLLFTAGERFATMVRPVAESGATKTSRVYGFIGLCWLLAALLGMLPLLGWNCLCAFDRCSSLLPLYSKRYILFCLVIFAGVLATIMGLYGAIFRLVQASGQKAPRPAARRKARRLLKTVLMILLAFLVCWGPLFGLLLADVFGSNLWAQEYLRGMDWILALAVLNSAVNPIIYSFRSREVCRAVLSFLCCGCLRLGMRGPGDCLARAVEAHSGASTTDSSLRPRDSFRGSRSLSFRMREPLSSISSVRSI
row,SMILES,IC50
1,CC(C)c1cccc(C(C)C)c1NC(=O)c1ccc(-c2cc(Cl)ccc2Cl)o1,0.105 µM
2,Cc1cccc(Cl)c1NC(=O)c1ccc(-c2cc(Cl)ccc2Cl)o1,0.169 µM
3,Cc1cscc1-c1ccc(C(=O)Nc2c(C)cccc2C)o1,0.286 µM
4,Cc1ccc(C)c(NC(=O)c2ccc(-c3cc(Cl)ccc3Cl)o2)c1,0.165 µM
5,Cc1cccc(C)c1NC(=O)c1ccc(-c2cc(F)ccc2F)o1,0.308 µM
6,COc1cccc(OC)c1NC(=O)c1ccc(-c2cc(Cl)ccc2Cl)o1,0.417 µM
7,CCc1cccc(CC)c1NC(=O)c1ccc(-c2cc(Cl)ccc2Cl)o1,0.089 µM
8,Cc1cccc(C)c1NC(=O)c1ccc(-c2cccc(Cl)c2)o1,0.497 µM
9,COc1cccc(C)c1NC(=O)c1ccc(-c2cc(Cl)ccc2Cl)o1,0.163 µM
10,Cc1ccc2ccccc2c1NC(=O)c1ccc(-c2cc(Cl)ccc2Cl)o1,0.253 µM
11,Cc1ccc(S(C)(=O)=O)c(C)c1NC(=O)c1ccc(-c2cc(Cl)ccc2Cl)o1,0.302 µM
